The source of these data is patent US6503919B1, “Compounds of 7-oxo-2,3,7,14-tetrahydro-1H-benzo[b]pyrano[3,2-h]acridin carboxylate” (Les Laboratoires Server, priority 1999, dated 2003).

Data set [1] deals with murine leukaemia L1210 and human colon carcinoma HT-29. In words: In vitro cytotoxicity, Microculture Tetrazolium Assay. It counts as cell-based. As to conditions: 4 doubling periods: 48 hours (L1210) or 96 hours (HT-29); cell line not stated; read-out: IC50 (cytotoxic concentration that inhibits the proliferation of the treated cells by 50%). As for the experimental part: The murine leukaemia L1210 and the human colon carcinoma HT-29 were used in vitro. The cells are cultured in complete RPMI 1640 culture medium containing 10% foetal calf serum, 2 mM glutamine, 50 U/ml of penicillin, 50 μg/ml of streptomycin and 10 mM Hepes, pH: 7.4. The cells are distributed in microplates and exposed to the cytotoxic compounds for 4 doubling periods, that is to say 48 hours (L1210) or 96 hours (HT-29). The number of viable cells is then quantified by a colorimetric assay, the Microculture Tetrazolium Assay (J. Carmichael et al., Cancer Res., 47, 936-942, (1987)). The results are expressed as IC50 values, which is the cytotoxic concentration that inhibits the proliferation of the treated cells by 50%.

In data set [2] the test system is P 388 (murine leukaemia). In words: Anti-tumour activity on the leukaemia P 388. It counts as in vivo. As to conditions: B6D2F1 mice, intraperitoneal route on day 1. As for the experimental part:
The line P 388 (murine leukaemia) was supplied by the National Cancer Institute (Frederick, USA). The tumour cells (10^6 cells) were inoculated on day 0 into the peritoneal cavity of female B6D2F1 mice (Iffa Credo, France). Six mice weighing from 18 to 20 g were used per experimental group. The compounds were administered by the intraperitoneal route on day 1.
The anti-tumour activity is expressed as % of T/C: [formula]

Each structure is given as a SMILES string.

The compound `COc1cc2c(c3c1c(=O)c1cc4ccccc4cc1n3C)[C@@H](OC(C)=O)[C@@H](OC(=O)CCC(=O)O)C(C)(C)O2` (racemic) [Example 1, (±)-cis-4-{[1-(Acetyloxy)-6-methoxy-3,3,14-trimethyl-7-oxo-2,3,7,14-tetrahydro-1H-benzo[b]pyrano[3,2-h]acridin-2-yl]oxy}-4-oxobutanoic acid] displayed a melting point of 154 °C. Further, the IC50 in data set [1] stood at 2 µM. With `COc1cc2c(c3c1c(=O)c1cc4ccccc4cc1n3C)[C@@H](OC(C)=O)[C@@H](OC(=O)CCCC(=O)O)C(C)(C)O2` (racemic) [Example 3, (±)-cis-5-{[1-(Acetyloxy)-6-methoxy-3,3,14-trimethyl-7-oxo-2,3,7,14-tetrahydro-1H-benzo[b]pyrano[3,2-h]acridin-2-yl]oxy}-5-oxopentanoic acid], the melting point worked out at 155 °C.

The compound `COc1cc2c(c3c1c(=O)c1cc4ccccc4cc1n3C)[C@@H](OC(=O)CCC(=O)O)[C@@H](OC(=O)CCC(=O)O)C(C)(C)O2` (racemic) [Example 7, (±)-cis-4-({1-[(3-Carboxypropanoyl)oxy]-6-methoxy-3,3,14-trimethyl-7-oxo-2,3,7,14-tetrahydro-1H-benzo[b]pyrano[3,2-h]acridin-2-yl}oxy)-4-oxobutanoic acid] showed a melting point of 128 °C. Moreover, in data set [1], the IC50 came out at 2.3 µM. Turning to `COc1cc2c(c3c1c(=O)c1cc4ccccc4cc1n3C)[C@@H](OC(=O)CCCC(=O)O)[C@@H](OC(=O)CCCC(=O)O)C(C)(C)O2` (relative stereo) [Example 22, cis-5-({1-[(4-Carboxybutanoyl)oxy]6-methoxy-3,3,14-trimethyl-7-oxo-2,3,7,14-tetrahydro-1H-benzo[b]pyrano[3,2-h]acridin-2-yl}oxy)-5-oxopentanoic acid], the melting point is 118 °C. Take `COc1cc2c(c3c1c(=O)c1ccccc1n3C)C=CC(C)(C)O2` [acronycine]: the “anti-tumour activity in the P 388 model (in words)” value in data set [2] is recorded as “only marginally active”.
